According to US20150216903A1, “COMPOUNDS FOR IMPROVED VIRAL TRANSDUCTION” (BLUEBIRD BIO, INC., priority 2012, published 2015):

Legend:
CD34+ cells [1] = assay: 7-Day liquid culture, FACS analysis after transduction with GFP+ lentivirus; assay type: cell-based, human
Procedure: (§1) One vial of CD34+ cells (AllCells) were thawed by incubating at 37° C. for 1-2 minutes and contents were transferred to 10 mL Stem Cell Growth Media (hereafter referred to as SCGM) in a 15-mL conical tube. Cells were spun for 5 minutes at 1500 RPM in a standard tabletop centrifuge, resuspended in 10 mL SCGM and counted on a hemacytometer. A volume correlating with an appropriate number of cells was transferred to a fresh 15-mL conical tube, and again spun for 5 minutes at 1500 RPM. Cells were resuspended to the desired cell concentration in SCGM+1× cytokines (100 ng/mL SCF, 100 ng/mL TPO, 100 ng/mL FltL, and 30 ng/mL IL-3), and plated on a sterile non-adherent surface at 37° C. in a standard humidified tissue culture incubator (5% CO2).
(§2) Pre-stimulated cells (Example 1) were counted after 18-24 hours of culture. The cells were collected and spun for 5 minutes at 1500 RPM. 1.2×10^6 pre-stimulated CD34^+ cells were resuspended in 60 uL 10× cytokines (1000 ng/mL SCF, 1000 ng/mL TPO, 1000 ng/mL FltL, and 300 ng/mL IL-3), 7.8 uL protamine sulfate, 111 uL viral supernatant, and 361.2 uL SCGM. 90 uL cell/virus suspension (about 200,000 cells) was added to each well of a standard non-adherent 96-well plate. dmPGE2 was added during this viral transduction step at a final concentration of 100 uM, 50 uM, 25 uM, 12.5 uM, 1 uM, or 0 uM.
Cells were incubated at 37° C. in a standard humidified tissue culture incubator (5% CO2).
Aliquots of 10 mM dmPGE2 in DMSO were prepared from 1 mg previously processed dmPGE2 (Cayman Chemicals). Briefly, air was pipetted into the vial of dmPGE2 until methyl acetate was evaporated. 263 uL DMSO was added to the PGE2 remaining in the vial, and aliquots of 25 uL were added to 1.5 mL Eppendorf tubes and stored at −80° C. 10× working stock solutions were prepared by serial dilution of dmPGE2 in SCGM, and were then added to cells at appropriate working concentrations, according to Table 2. Cells were then incubated at 37° C. in a standard humidified tissue culture incubator (5% CO2).
(§3) After 24 hours of culture with virus and dmPGE2, cells were washed prior to subsequent functional validation assays. Washing was performed by transferring cells to a 96-well U-bottom plate and spinning for 5 minutes at 1500 RPM in a standard tabletop centrifuge. Media was aspirated and cells were resuspended in 200 uL SCGM. Cells were spun again for 5 minutes at 1500 RPM and media was aspirated. Cells were again resuspended in 200 uL SCGM then spun for 5 minutes at 1500 RPM, and again the media was aspirated. Particular functional validation assays are described below.
(§4) Washed cells were resuspended in 200 uL SCGM+lx cytokines (as described in Example 1) and transferred to a standard 12-well non-adherent tissue culture plate containing an additional 800 uL SCGM+lx cytokines Cells were maintained for an additional 6 days in a standard humidified tissue culture incubator (5% CO2) and then subjected Vector Copy Number analysis (Example 5) and FACS analysis. For FACS analysis, cells were assayed for the presence of a virally-encoded transgene, green fluorescent protein (GFP). The frequency of the virally-labeled cells within the pool of cultured cells was quantified as the frequency of GFP+ cells within the population. The mean fluorescence intensity of labeled cells was quantified.
Tables 3A-C indicate the dose-response of dmPGE2 in promoting viral transduction of CD34+ cells for three separate experiments. CD34+ cells were thawed and pre-stimulated with SCF, TPO, FltL, and IL3, then transduced (A) with GFP+ lentivirus at a multiplicity of infection of 25, (B) with GFP+ lentivirus at a multiplicity of infection of 5, or (C) transduced with an ALD (ABCD1)-expressing lentivirus at a multiplicity of infection of 25. Cells were exposed to dmPGE2 during the viral transduction step (24-48 hours of culture). Cells were then washed and analyzed by flow cytometry and PCR after approximately 1 week in culture. […]

CD34+ cells [2] = assay: Vector Copy Number analysis (qRT-PCR, viral LTR vs human beta-actin) after GFP+ lentivirus transduction; assay type: cell-based
Procedure: as §2, §3, §4
Briefly, total genomic DNA was isolated from cells through standard protocols (for example, through DNEasy columns from Qiagen). Genomic DNA was subjected to quantitative real-time polymerase chain reaction (qRT-PCR) with TaqMan probes for viral LTR and human beta-actin. The Ct values for viral signal and beta-actin signal were normalized to a standardized control, and the number of viral copies per copy of beta actin were calculated. A linear relationship between the vector copy number and the mean fluorescence intensity (Example 4) was observed when a viral construct that encodes GFP was used.
(§5) Tables 3A-C indicate the dose-response of dmPGE2 in promoting viral transduction of CD34+ cells for three separate experiments. CD34+ cells were thawed and pre-stimulated with SCF, TPO, FltL, and IL3, then transduced (A) with GFP+ lentivirus at a multiplicity of infection of 25, (B) with GFP+ lentivirus at a multiplicity of infection of 5, or (C) transduced with an ALD (ABCD1)-expressing lentivirus at a multiplicity of infection of 25. Cells were exposed to dmPGE2 during the viral transduction step (24-48 hours of culture). Cells were then washed and analyzed by flow cytometry and PCR after approximately 1 week in culture. The percentage of cells positive for GFP (A, B) or ALD (C) via FACS staining is indicated, along with the mean fluorescent intensity (MFI) and vector copy number (VCN) (A, B).

CD34+ cells [3] = assay: FACS staining after transduction with ALD (ABCD1)-expressing lentivirus; assay type: cell-based, human; conditions: ABCD1 lentivirus MOI 25
Procedure: as §1, §2, §3, §4, §5

[4] = dmPGE2 12.5 uM during transduction, GFP lentivirus MOI 5
[5] = dmPGE2 12.5 uM during transduction, GFP lentivirus MOI 25
[6] = dmPGE2 25 uM during transduction, GFP lentivirus MOI 5
[7] = dmPGE2 25 uM during transduction, GFP lentivirus MOI 25
[8] = dmPGE2 50 uM during transduction, GFP lentivirus MOI 5
[9] = dmPGE2 50 uM during transduction, GFP lentivirus MOI 25
[10] = dmPGE2 100 uM during transduction, GFP lentivirus MOI 5
[11] = dmPGE2 100 uM during transduction, GFP lentivirus MOI 25

What does the source list for `CCCCC(C)(C)[C@H](O)/C=C/[C@H]1[C@H](O)CC(=O)[C@@H]1C/C=C\CCCC(=O)O` [dmPGE2, 16,16-dimethyl PGE2]?
% Positive (GFP) (CD34+ cells [1]; dmPGE2 12.5 uM during transduction (24-48 hours of culture), GFP lentivirus MOI 5): 17.84%; % Positive (GFP) (CD34+ cells [1]; dmPGE2 12.5 uM during transduction (24-48 hours of culture), GFP lentivirus MOI 25): 54.71%; MFI (CD34+ cells [1]; [4]): 530,218.50; MFI (CD34+ cells [1]; [5]): 759,442.75; % Positive (GFP) (CD34+ cells [1]; dmPGE2 25 uM during transduction (24-48 hours of culture), GFP lentivirus MOI 5): 18.69%; % Positive (GFP) (CD34+ cells [1]; dmPGE2 25 uM during transduction (24-48 hours of culture), GFP lentivirus MOI 25): 59.99%; MFI (CD34+ cells [1]; [6]): 562,428.00; MFI (CD34+ cells [1]; [7]): 845,691.00; % Positive (GFP) (CD34+ cells [1]; dmPGE2 50 uM during transduction (24-48 hours of culture), GFP lentivirus MOI 5): 36.80%; % Positive (GFP) (CD34+ cells [1]; dmPGE2 50 uM during transduction (24-48 hours of culture), GFP lentivirus MOI 25): 67.62%; MFI (CD34+ cells [1]; [8]): 656,703.50; MFI (CD34+ cells [1]; [9]): 977,806.75; % Positive (GFP) (CD34+ cells [1]; dmPGE2 100 uM during transduction (24-48 hours of culture), GFP lentivirus MOI 5): 42.97%; % Positive (GFP) (CD34+ cells [1]; dmPGE2 100 uM during transduction (24-48 hours of culture), GFP lentivirus MOI 25): 81.53%; MFI (CD34+ cells [1]; [10]): 732,716.25; MFI (CD34+ cells [1]; [11]): 1,513,504.00; VCN (CD34+ cells [2]; [4]): 0.18; VCN (CD34+ cells [2]; [5]): 1.5; VCN (CD34+ cells [2]; [6]): 0.21; VCN (CD34+ cells [2]; [7]): 1.7; VCN (CD34+ cells [2]; [8]): 0.715; VCN (CD34+ cells [2]; [9]): 2.2; VCN (CD34+ cells [2]; [10]): 0.83; VCN (CD34+ cells [2]; [11]): 3.55; % Positive (ALD) (CD34+ cells [3]; dmPGE2 1 uM during transduction (24-48 hours of culture)): 34.13%; % Positive (ALD) (CD34+ cells [3]; dmPGE2 12.5 uM during transduction (24-48 hours of culture)): 45.36%; % Positive (ALD) (CD34+ cells [3]; dmPGE2 25 uM during transduction (24-48 hours of culture)): 43.76%; % Positive (ALD) (CD34+ cells [3]; dmPGE2 50 uM during transduction (24-48 hours of culture)): 56.10%; % Positive (ALD) (CD34+ cells [3]; dmPGE2 100 uM during transduction (24-48 hours of culture)): 72.26%
